Literature values as cited in US4127528A, “Novel derivatives of alpha-endorphin, intermediates therefor and compositions and methods employing said derivatives” (priority 1977, dated 1978).

What was measured:
rat = settings: injected directly into the brain of the rat
[1] = test system: brain opiate receptor sites; settings: natural peptide

H-Tyr-Gly-Gly-Phe-Met-OH [methionine enkephalin]
analgesic activity (rat): only weak analgesic activity of short duration
activity in bioassays for opiate activity (opiate activity): very active
binding to partially purified brain opiate receptor sites [1]: binds stereo-specifically
